Each block holds one compound with its values, some of them ahead of it.
Assays:
[1] = test system: HDAC proteins in HeLa cell lysates; assay: Global HDAC inhibition with HeLa cell lysates (HDAC-Glo I/II substrate); assay type: biochemical; conditions: for Deacetylase activity (%): Hela Lysate
Description: HDAC activity was measured using the commercially available HDAC-Glo™ I/II substrate (Promega).
Lysates were prepared according to the reported procedure.^28 HeLa-S3 cells (purchased from Biovest) were lysed in lysis buffer (1×10^9 cells in 10 mL lysis buffer; 50 mM Tris-HCl, pH 8.0, 10% glycerol, 150 mM NaCl, 0.5% Triton X-100, and 1× protease inhibitor cocktail (GenDEPOT)) with rotation at 4° C. for 30 min. Cell debris was removed by centrifugation at 12000 rpm at 4° C. for 30 min. Protein concentration of the supernatant was determined using Bio-Rad protein assay (BioRad, Bradford reagent). Lysates were stored at −80° C.
To measure global HDAC inhibition, HeLa cell lysates (1 μg total protein) were mixed with HDAC-Glo™ buffer in polystyrene 96-well half area white plate (Corning) to a final volume of 12 μL, followed by addition of inhibitors in DMSO (0.5 μL) and incubation for 15 min at room temperature without rocking. An uninhibited control reaction was also included that contained DMSO (0.5 μL). Finally, deacetylase activity was measured using the HDAC-Glo™ assay kit (Promega) as per the manufacturer's protocol. Specifically, the HDAC-Glo™ substrate (1 mL) and developer ([…]) were first premixed to form the HDAC-Glo™ reagents. Then, to monitor deacetylase activity, HDAC-Glo™ reagent (5 μL) and HDAC-Glo™ buffer (7.5 μL) were added to each well (25 μL total volume) and incubated for 35 min at room temperature without rocking. The deacetylase activity was measured as luminescent signal using a GeniosPlus Fluorimeter (Tecan) at optimal gain. The concentrations of inhibitors reported in the dose-dependent studies (Table 2) are final concentrations after addition of HDAC-Glo™ reagent HDAC-Glo™ buffer.

recombinant HDAC8 = biological target: T1, recombinant HDAC8 (Homo sapiens, UniProt Q9BY41); assay: Recombinant HDAC8 inhibition (HDAC-Glo); assay type: biochemical; conditions: for activity at 0.1 µM: 1.0 × 10^−7 M; for activity at 0.2 µM: 2.0 × 10^−7 M; for activity at 0.05 µM: 5.0 × 10^−8 M; for HDAC8 fold selectivity HDAC1: HDAC8 over HDAC1; for HDAC8 fold selectivity HDAC1 / HDAC8 fold selectivity HDAC2 / HDAC8 fold selectivity HDAC3: calculated from IC50 values; for HDAC8 fold selectivity HDAC2: HDAC8 over HDAC2; for HDAC8 fold selectivity HDAC3: HDAC8 over HDAC3
T1 construct: purchased BPS Bioscience
T1 sequence (Q9BY41 1-377): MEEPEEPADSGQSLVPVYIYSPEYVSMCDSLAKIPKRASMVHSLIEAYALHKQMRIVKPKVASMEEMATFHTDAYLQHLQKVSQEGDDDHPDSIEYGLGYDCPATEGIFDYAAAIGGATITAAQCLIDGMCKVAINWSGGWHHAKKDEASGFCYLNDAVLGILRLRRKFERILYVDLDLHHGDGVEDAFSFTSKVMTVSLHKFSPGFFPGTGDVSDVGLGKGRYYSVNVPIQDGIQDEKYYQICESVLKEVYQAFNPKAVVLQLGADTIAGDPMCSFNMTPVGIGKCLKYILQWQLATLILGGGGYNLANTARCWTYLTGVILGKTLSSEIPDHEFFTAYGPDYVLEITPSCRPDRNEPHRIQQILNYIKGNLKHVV
Description: Inhibitory activity with HDAC8 was measured using the following procedure. In a half area 96-well white opaque plate, recombinant HDAC8 (75 ng, BPS Bioscience) was incubated in HDAC-Glo™ buffer (39 μL) with inhibitor in DMSO (1 μL), or DMSO alone (1 μL) as a control, for 15 minutes at room temperature. HDAC-Glo™ reagent (10 μL) was added to each reaction and incubated for 30 min at room temperature. Luminescent signal was measured 30 minutes after adding the substrate reagent using a Geniosplus Fluorimeter (Tecan) at optimal gain. To determine IC50, the luminescent signal was first background corrected with the signal from a background control reaction where no HDAC8 enzyme was added.

HDAC1 = HDAC1 (Homo sapiens, UniProt Q13547); assay: ELISA-based HDAC activity assay, HDAC1; conditions: for IC50: read-out: IC50 values (nM) HDAC1
HDAC1, sequence (Q13547 whole entry): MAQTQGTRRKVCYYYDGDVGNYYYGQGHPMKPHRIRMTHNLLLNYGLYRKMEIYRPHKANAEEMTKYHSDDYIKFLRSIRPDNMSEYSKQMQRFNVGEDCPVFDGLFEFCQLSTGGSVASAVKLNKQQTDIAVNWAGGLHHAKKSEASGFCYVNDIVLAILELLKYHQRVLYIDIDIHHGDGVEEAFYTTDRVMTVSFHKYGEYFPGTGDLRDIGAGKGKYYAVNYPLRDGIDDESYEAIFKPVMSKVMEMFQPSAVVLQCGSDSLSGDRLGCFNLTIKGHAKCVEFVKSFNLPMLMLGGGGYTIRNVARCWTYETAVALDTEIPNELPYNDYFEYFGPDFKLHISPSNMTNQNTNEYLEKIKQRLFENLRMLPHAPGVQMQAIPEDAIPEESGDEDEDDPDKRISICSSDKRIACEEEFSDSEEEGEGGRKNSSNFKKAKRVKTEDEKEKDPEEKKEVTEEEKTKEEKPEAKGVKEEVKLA

HDAC2 = HDAC2 (Homo sapiens, UniProt Q92769); assay: ELISA-based HDAC activity assay, HDAC2; conditions: for IC50: read-out: IC50 values (nM) HDAC2
HDAC2, sequence (Q92769 whole entry): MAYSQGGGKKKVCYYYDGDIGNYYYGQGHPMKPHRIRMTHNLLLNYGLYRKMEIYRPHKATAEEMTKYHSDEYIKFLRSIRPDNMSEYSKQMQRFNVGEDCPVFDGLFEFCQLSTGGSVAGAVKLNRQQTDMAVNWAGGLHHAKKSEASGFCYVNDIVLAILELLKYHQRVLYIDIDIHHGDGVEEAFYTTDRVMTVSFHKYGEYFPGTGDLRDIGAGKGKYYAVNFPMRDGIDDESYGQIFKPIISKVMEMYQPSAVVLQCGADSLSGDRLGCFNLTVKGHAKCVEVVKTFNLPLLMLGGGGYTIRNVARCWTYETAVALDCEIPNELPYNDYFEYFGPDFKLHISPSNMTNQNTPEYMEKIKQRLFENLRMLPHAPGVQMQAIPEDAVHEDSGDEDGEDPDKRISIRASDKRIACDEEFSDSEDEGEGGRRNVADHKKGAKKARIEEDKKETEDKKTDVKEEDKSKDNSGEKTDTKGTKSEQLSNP

HDAC3 = HDAC3 (Homo sapiens, UniProt O15379); assay: ELISA-based HDAC activity assay, HDAC3; conditions: for IC50: read-out: IC50 values (nM) HDAC3
HDAC3, sequence (O15379 whole entry): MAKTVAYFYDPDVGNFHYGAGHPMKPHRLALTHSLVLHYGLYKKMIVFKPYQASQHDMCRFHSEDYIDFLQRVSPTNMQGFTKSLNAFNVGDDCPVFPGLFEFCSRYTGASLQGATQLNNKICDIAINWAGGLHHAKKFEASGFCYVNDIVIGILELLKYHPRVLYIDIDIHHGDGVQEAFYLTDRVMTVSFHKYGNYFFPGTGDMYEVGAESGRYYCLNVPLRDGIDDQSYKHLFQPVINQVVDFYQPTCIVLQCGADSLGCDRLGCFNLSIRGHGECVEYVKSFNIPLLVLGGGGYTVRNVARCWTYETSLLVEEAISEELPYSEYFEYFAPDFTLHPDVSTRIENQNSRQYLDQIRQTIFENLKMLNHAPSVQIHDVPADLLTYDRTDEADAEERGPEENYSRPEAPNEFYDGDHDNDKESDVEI
HDAC3, sequence (Q9Y618 whole entry partner): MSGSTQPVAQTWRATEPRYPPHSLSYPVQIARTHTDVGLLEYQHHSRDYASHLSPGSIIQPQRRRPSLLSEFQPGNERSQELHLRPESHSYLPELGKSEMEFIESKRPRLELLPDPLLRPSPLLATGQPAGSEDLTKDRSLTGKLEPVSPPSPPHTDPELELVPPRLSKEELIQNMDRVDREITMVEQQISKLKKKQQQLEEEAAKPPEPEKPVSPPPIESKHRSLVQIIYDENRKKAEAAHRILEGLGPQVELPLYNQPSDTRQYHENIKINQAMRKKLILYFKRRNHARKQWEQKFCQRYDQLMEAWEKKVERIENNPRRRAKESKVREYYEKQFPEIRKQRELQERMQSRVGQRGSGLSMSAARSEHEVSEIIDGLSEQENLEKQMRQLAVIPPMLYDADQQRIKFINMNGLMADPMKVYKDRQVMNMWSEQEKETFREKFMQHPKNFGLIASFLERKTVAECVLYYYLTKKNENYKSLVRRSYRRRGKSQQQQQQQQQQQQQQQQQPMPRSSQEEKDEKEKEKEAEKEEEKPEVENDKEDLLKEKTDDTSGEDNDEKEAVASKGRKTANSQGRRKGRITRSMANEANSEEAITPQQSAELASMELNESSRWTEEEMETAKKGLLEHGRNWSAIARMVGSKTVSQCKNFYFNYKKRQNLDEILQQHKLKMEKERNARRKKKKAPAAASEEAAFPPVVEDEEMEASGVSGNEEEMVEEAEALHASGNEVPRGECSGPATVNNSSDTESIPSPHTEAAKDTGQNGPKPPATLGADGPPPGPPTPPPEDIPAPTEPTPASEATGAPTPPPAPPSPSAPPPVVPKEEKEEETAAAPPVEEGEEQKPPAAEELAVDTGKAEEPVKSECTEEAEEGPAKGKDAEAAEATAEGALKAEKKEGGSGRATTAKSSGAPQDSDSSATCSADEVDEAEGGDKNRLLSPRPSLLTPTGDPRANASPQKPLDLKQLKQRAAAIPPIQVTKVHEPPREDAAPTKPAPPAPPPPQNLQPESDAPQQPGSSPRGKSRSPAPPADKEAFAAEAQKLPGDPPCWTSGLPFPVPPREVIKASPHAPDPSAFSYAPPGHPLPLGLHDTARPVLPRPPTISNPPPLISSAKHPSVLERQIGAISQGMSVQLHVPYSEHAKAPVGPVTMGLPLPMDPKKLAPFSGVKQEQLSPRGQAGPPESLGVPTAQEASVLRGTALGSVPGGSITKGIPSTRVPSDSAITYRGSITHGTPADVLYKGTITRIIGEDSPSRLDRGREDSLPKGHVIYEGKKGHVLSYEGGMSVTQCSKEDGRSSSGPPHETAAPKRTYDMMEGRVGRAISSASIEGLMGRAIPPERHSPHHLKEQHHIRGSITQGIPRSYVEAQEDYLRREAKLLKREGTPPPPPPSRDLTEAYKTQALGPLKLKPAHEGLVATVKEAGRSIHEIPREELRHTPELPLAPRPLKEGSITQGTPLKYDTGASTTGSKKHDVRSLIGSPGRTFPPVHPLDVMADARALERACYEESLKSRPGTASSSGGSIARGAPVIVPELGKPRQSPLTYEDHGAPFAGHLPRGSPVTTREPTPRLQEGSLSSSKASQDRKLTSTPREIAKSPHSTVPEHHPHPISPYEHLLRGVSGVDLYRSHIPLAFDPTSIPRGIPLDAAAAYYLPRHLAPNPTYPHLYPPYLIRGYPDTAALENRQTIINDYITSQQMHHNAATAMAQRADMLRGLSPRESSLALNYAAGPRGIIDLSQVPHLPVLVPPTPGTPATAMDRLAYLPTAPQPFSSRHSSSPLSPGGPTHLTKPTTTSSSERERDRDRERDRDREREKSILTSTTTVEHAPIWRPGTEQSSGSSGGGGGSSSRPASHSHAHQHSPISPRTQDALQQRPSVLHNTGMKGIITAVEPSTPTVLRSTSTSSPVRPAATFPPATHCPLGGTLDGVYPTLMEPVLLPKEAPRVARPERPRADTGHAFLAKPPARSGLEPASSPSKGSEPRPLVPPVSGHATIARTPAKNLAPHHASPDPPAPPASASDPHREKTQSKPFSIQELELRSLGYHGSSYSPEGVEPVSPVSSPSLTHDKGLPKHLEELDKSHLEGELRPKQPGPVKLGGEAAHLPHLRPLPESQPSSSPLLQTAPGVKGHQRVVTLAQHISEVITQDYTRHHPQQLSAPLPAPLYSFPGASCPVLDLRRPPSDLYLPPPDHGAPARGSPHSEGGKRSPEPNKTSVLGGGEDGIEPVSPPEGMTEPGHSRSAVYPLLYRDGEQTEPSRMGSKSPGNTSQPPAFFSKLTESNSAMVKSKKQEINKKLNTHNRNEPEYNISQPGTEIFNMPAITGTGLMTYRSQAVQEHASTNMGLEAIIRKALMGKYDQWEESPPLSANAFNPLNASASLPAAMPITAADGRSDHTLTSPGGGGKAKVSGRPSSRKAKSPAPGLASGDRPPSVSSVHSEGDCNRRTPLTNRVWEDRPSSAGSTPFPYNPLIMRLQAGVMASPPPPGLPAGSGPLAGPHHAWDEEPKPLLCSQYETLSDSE

HDAC6 = biological target: T2, HDAC6 (Homo sapiens, UniProt Q9UBN7); assay: ELISA-based HDAC activity assay, HDAC6; conditions: for HDAC6 fold selectivity HDAC1: HDAC6 over HDAC1; for HDAC6 fold selectivity HDAC1 / HDAC6 fold selectivity HDAC2 / HDAC6 fold selectivity HDAC3: calculated from IC50 values; for HDAC6 fold selectivity HDAC2: HDAC6 over HDAC2; for HDAC6 fold selectivity HDAC3: HDAC6 over HDAC3; for IC50: read-out: IC50 values (nM) HDAC6
T2 sequence (Q9UBN7 1-1215): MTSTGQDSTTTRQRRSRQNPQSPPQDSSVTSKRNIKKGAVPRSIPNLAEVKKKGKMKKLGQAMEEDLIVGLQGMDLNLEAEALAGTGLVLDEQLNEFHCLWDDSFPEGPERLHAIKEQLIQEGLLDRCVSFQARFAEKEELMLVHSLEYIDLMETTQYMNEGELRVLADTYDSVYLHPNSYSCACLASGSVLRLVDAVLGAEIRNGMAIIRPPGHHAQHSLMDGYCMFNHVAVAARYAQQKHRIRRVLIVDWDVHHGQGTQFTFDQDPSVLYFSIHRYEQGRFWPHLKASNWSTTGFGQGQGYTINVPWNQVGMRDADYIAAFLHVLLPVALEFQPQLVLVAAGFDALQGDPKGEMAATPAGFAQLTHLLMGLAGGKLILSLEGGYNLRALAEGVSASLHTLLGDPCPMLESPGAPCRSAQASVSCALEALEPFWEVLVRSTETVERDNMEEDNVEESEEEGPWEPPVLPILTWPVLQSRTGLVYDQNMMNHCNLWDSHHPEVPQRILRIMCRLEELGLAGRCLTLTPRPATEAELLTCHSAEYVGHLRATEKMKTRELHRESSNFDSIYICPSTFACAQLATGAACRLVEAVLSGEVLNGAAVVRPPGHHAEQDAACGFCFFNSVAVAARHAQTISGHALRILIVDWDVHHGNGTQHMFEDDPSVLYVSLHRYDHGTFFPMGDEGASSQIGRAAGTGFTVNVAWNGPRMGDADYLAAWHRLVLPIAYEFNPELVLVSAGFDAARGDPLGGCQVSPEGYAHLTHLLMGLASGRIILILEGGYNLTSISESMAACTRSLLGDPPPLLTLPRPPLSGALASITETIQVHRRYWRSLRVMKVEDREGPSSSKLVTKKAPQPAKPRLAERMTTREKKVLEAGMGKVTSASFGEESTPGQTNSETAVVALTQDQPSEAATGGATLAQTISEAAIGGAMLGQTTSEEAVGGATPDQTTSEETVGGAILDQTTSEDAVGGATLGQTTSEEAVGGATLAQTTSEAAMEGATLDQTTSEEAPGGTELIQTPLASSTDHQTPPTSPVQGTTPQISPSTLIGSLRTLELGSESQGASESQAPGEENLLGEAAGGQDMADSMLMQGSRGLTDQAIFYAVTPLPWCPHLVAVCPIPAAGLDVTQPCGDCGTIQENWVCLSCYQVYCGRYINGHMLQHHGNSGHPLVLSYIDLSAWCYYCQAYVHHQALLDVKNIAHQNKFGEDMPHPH

[2] = read-out: Deacetylase activity (%) HDAC8
[3] = read-out: Deacetylase activity (%) HDAC1
[4] = read-out: Deacetylase activity (%) HDAC2
[5] = read-out: Deacetylase activity (%) HDAC3
[6] = read-out: Deacetylase activity (%) HDAC6

IC50 ([1]; HeLa cell lysates): 3.3 µM
SMILES: CC(CCCC(=O)Nc1ccccc1)CCC(=O)NO (racemic) [Compound 1a, N^1-hydroxy-4-methyl-N^8-phenyloctanediamide]
Deacetylase activity (%) ([1]; 1.0 × 10^−5 M): 17 ± 2%
Deacetylase activity (%) ([1]; 1.25 × 10^−6 M): 79 ± 3%
Deacetylase activity (%) ([1]; 5.0 × 10^−6 M): 38 ± 4%
Deacetylase activity (%) ([1]; 6.25 × 10^−6 M): 91 ± 2%
fold less potent than SAHA ([1]; HeLa cell lysates, compared to parent SAHA): 18 fold
Deacetylase activity (%) ([1]; […] 10^−6 M): 60 ± 3%

IC50 ([1]; HeLa cell lysates): 65 ± 6 µM
SMILES: CCCCCCC(CCCC(=O)Nc1ccccc1)CCC(=O)NO (single isomer, unassigned) [Compound 1e, 4-hexyl-N^1-hydroxy-N^8-phenyloctanediamide]
Deacetylase activity (%) ([1]; 1.0 × 10^−4 M): 32 ± 1%
Deacetylase activity (%) ([1]; 1.25 × 10^−5 M): 104 ± 1%
Deacetylase activity (%) ([1]; 2.0 × 10^−4 M): 15 ± 1%
Deacetylase activity (%) ([1]; 5.0 × 10^−5 M): 57 ± 2%
Deacetylase activity (%) ([1]; […] 10^−5 M): 88 ± 1%

IC50 (recombinant HDAC8): 27 nM
activity at 0.1 µM (recombinant HDAC8; [2]): 22 ± 1%
activity at 0.0125 µM (recombinant HDAC8; 1.25 × 10^−8 M, read-out: Deacetylase activity (%) HDAC8): 64 ± 2%
activity at 0.2 µM (recombinant HDAC8; [2]): 16 ± 1%
activity at […] (recombinant HDAC8; 2.5 × 10^−8 M, read-out: Deacetylase activity (%) HDAC8): 56 ± 4%
activity at 0.05 µM (recombinant HDAC8; [2]): 37 ± 3%
HDAC8 fold selectivity HDAC1 (recombinant HDAC8): 260 fold
HDAC8 fold selectivity HDAC2 (recombinant HDAC8): 330 fold
HDAC8 fold selectivity HDAC3 (recombinant HDAC8): 240 fold
activity at 5 µM (HDAC1; [3]): 88 ± 4%
activity at 10 µM (HDAC1; [3]): 72 ± 3%
activity at 20 µM (HDAC1; [3]): 53 ± 6%
activity at 40 µM (HDAC1; [3]): 38 ± 3%
activity at 80 µM (HDAC1; [3]): 24 ± 2%
IC50 (HDAC1): 25000 nM
activity at 5 µM (HDAC2; [4]): 96 ± 1%
activity at 10 µM (HDAC2; [4]): 83 ± 5%
activity at 20 µM (HDAC2; [4]): 71 ± 4%
activity at 40 µM (HDAC2; [4]): 43 ± 5%
activity at 80 µM (HDAC2; [4]): 29 ± 1%
IC50 (HDAC2): 36000 nM
activity at 5 µM (HDAC3; [5]): 89 ± 2%
activity at 10 µM (HDAC3; [5]): 77 ± 2%
activity at 20 µM (HDAC3; [5]): 54 ± 4%
activity at 40 µM (HDAC3; [5]): 39 ± 2%
activity at 80 µM (HDAC3; [5]): 25 ± 2%
IC50 (HDAC3): 27000 nM
HDAC6 fold selectivity HDAC1 (HDAC6): 420 fold
HDAC6 fold selectivity HDAC2 (HDAC6): 540 fold
HDAC6 fold selectivity HDAC3 (HDAC6): 390 fold
activity at 0.0125 µM (HDAC6; [6]): 67 ± 4%
activity at 0.05 µM (HDAC6; [6]): 57 ± 5%
activity at 0.1 µM (HDAC6; [6]): 37 ± 6%
activity at 0.2 µM (HDAC6; [6]): 26 ± 4%
activity at […] (HDAC6; [6]): 59 ± 8%
IC50 (HDAC6): 48 nM
SMILES: O=C(CC[C@@H](CCCC(=O)Nc1ccccc1)Cc1ccccc1)NO [(R)-1f, (R)-4-benzyl-N^1-hydroxy-N^8-phenyloctanediamide]

IC50 (recombinant HDAC8): 150 nM
activity at 0.1 µM (recombinant HDAC8; [2]): 61 ± 3%
activity at 0.2 µM (recombinant HDAC8; [2]): 42 ± 2%
activity at 0.4 µM (recombinant HDAC8; 4.0 × 10^−7 M, read-out: Deacetylase activity (%) HDAC8): 28 ± 1%
activity at 0.05 µM (recombinant HDAC8; [2]): 75 ± 6%
activity at 0.8 µM (recombinant HDAC8; 8.0 × 10^−7 M, read-out: Deacetylase activity (%) HDAC8): 19 ± 1%
HDAC8 fold selectivity HDAC1 (recombinant HDAC8): 930 fold
HDAC8 fold selectivity HDAC2 (recombinant HDAC8): 1300 fold
HDAC8 fold selectivity HDAC3 (recombinant HDAC8): 1000 fold
activity at 10 µM (HDAC1; [3]): 84 ± 7%
activity at 20 µM (HDAC1; [3]): 68 ± 3%
activity at 40 µM (HDAC1; [3]): 50 ± 3%
activity at 80 µM (HDAC1; [3]): 32 ± 2%
activity at 160 µM (HDAC1; [3]): 17 ± 1%
IC50 (HDAC1): 40000 nM
activity at 10 µM (HDAC2; [4]): 87 ± 5%
activity at 20 µM (HDAC2; [4]): 74 ± 3%
activity at 40 µM (HDAC2; [4]): 56 ± 3%
activity at 80 µM (HDAC2; [4]): 37 ± 6%
activity at 160 µM (HDAC2; [4]): 22 ± 2%
IC50 (HDAC2): 51000 nM
activity at 10 µM (HDAC3; [5]): 76 ± 5%
activity at 20 µM (HDAC3; [5]): 67 ± 4%
activity at 40 µM (HDAC3; [5]): 48 ± 2%
activity at 80 µM (HDAC3; [5]): 33 ± 4%
activity at 160 µM (HDAC3; [5]): 15 ± 2%
IC50 (HDAC3): 37000 nM
HDAC6 fold selectivity HDAC1 (HDAC6): 520 fold
HDAC6 fold selectivity HDAC2 (HDAC6): 750 fold
HDAC6 fold selectivity HDAC3 (HDAC6): 560 fold
activity at 0.05 µM (HDAC6; [6]): 64 ± 4%
activity at 0.1 µM (HDAC6; [6]): 48 ± 7%
activity at 0.2 µM (HDAC6; [6]): 37 ± 7%
activity at 0.4 µM (HDAC6; [6]): 17 ± 6%
activity at 0.8 µM (HDAC6; [6]): 16 ± 6%
IC50 (HDAC6): 95 ± 9 nM
SMILES: O=C(CC[C@H](CCCC(=O)Nc1ccccc1)Cc1ccccc1)NO [(S)-1f, (S)-4-benzyl-N^1-hydroxy-N^8-phenyloctanediamide]
